Results from a melting point compilation (Tetko et al.; mined from patent text by program, amines drawn as free bases though some values may be those of a salt).

With `CC(C)C(=C(c1ccccc1)c1ccccc1)P(C1CCCCC1)C1CCCCC1` the melting point was 162 to 163 °C. In the case of `Fc1ccc(C2NCCc3c2[nH]c2ccccc32)cc1F` (stereo not given), the melting point is reported as 151 °C. Molecule `CCCCCn1c(=O)c2cc(C(=O)OCC)cn2c2ccccc21` has a melting point of 151 to 152 °C. `O=C(NC1(C2CC2)CC1)c1c(NC(=O)c2cc(C(F)(F)F)nn2-c2ncccc2Cl)ccc2cn[nH]c12` gave a melting point of 224 to 227 °C. `N#CC12CC(c3ccccc31)c1ccccc12` showed a melting point of 120 to 123 °C. With `CCOC(=O)c1cn(-c2nc(NCc3ccc(OC)cc3)c(F)cc2F)c2c(F)c(F)c(F)c(NCc3ccccc3)c2c1=O` the melting point was 146 to 148 °C. With `CCn1cc(C(=O)NC2CC2c2ccccc2)c(=O)c2cnc(N3CCCC3)nc21` (stereo not given) the melting point was 199 to 201 °C. `CC(C)(C)OC(=O)NCCCCC(=O)Nc1ccc(O)c(C(=O)O)c1` showed a melting point of 181 °C. With `COc1cc(N)c(Cl)cc1C(=O)Nc1cc(OC)c(C(=O)N[C@H]2CCN(CCCOc3ccc(F)cc3)C[C@H]2OC)cc1Cl` (relative stereo) the melting point was 182 °C. `COc1ccc2c(c1)C(c1ccc(N)cc1)=NN(C(=O)C1CC1)C(C)C2` (stereo not given) showed a melting point of 93 to 95 °C. For `Cc1cc(-n2cccn2)c2cccc(OCc3c(Cl)ccc(S(=O)(=O)N4CCC[C@H]4C(=O)O)c3Cl)c2n1`, the melting point was 148 °C. In the case of `O=C(O)c1ccc2c(c1)S(=O)(=O)c1cc(C(=O)O)ccc1O2`, the melting point is reported as 399 to 401 °C. In the case of `CC1Nc2ccc(NC(=O)c3ccc(-c4ccccc4)cc3)cc2N1C` (stereo not given), the melting point is reported as 270 °C. `O=C(Nc1ccc2ccc(-c3ccc(F)cc3)nc2n1)c1cccc(Br)c1` gave a melting point of 210 °C. In the case of `CCC(=NOC)C1=C(O)CC(c2ccc(NS(C)(=O)=O)cc2)CC1=O` (stereo not given), the melting point is reported as 150 to 151 °C. For `O=Cc1ncn2cc(Br)sc12`, the melting point was 200 to 201 °C. `CN(C)C(=O)C(c1ccc(N)cc1)C1(O)CCCCC1` (stereo not given) showed a melting point of 169 to 170 °C. With `CC(=O)Nc1ccc(S(=O)(=O)Nc2cccc3[nH]ccc23)cc1` the melting point was > 260 °C. In the case of `COC(=O)c1ccc(C(N)=O)cc1Cl`, the melting point is reported as 154 to 156 °C. With `CCOC(=O)c1nnc(-c2cc3cccc(N(C)S(=O)(=O)c4cccs4)c3[nH]2)s1` the melting point was 176 to 177 °C. In the case of `CC1(C)NC2(CCCCC2)NC1(C)C`, the melting point is reported as 31 to 32 °C. `CC[C@H]1[C@H](O)CC(=O)N1c1ccc(C#N)c(OC)c1` gave a melting point of 138 to 141 °C. Work on `CCOCCn1c(NC2CCN(CC(=O)O)CC2)nc2cccnc21` yielded a melting point of 227 °C. `COC1OCC[C@@H]1NC(=O)[C@H](CC(C)C)NC(=O)OCc1ccccc1` (stereo not given in full) gave a melting point of 112 to 113 °C. In the case of `C=Cc1ccncc1C#N`, the melting point is reported as 56 to 57 °C. `COC(=O)c1ccc(OC(=C(Oc2ccc(C(=O)OC)cc2)C(F)(F)F)C(F)(F)F)cc1` gave a melting point of 123 °C. For `CC(=O)Nc1c(C)nc(N)c(C(=O)NNS(=O)(=O)c2ccccc2)c1C`, the melting point was 216 to 218 °C. With `COc1ccc(Sc2nc(C)c(CC(=O)O)s2)nn1` the melting point was 143 to 144 °C. `O=C(NCCCOc1ccc(-n2ccnc2)cc1)c1ccc(Br)cc1` gave a melting point of 183 to 185 °C. `OC(Cn1ccnc1)(c1ccc(Cl)cc1)c1ccc(Cl)cc1` showed a melting point of 208 to 210 °C. `Cn1cc(CC#N)c2cc([N+](=O)[O-])ccc21` gave a melting point of 165 to 166 °C. Molecule `CCOC(=O)c1cc(=O)c2cc3c(=O)cc(C(=O)OCC)oc3cc2[nH]1` has a melting point of 201 to 202 °C. `CN(C)C1CCc2[nH]c3cccc(Cl)c3c2C1` (stereo not given) gave a melting point of 212 to 214 °C. In the case of `O=C(O)c1ccc(COCc2csc3nc(C(=O)NCCc4ccccc4)[nH]c(=O)c23)cc1`, the melting point is reported as 227 to 229 °C. Work on `CCCCCCCCCCc1ccc2cc(SC)c(O)cc2c1` yielded a melting point of 64.4 to 65.4 °C. `CCOC(=O)c1cnc2sc3c(c2c1O)CCCC3` showed a melting point of 138 to 140 °C. In the case of `C=CC(=O)NCCCCCCCCOc1ccccc1`, the melting point is reported as 45 to 47 °C. In the case of `CCC(C)c1nn(-c2ccc(C(F)(F)F)cn2)cc1C=O` (stereo not given), the melting point is reported as 82 to 83 °C. For `N#Cc1ccc(OCCCCCCOc2ccc(-c3cc4ccc(C#N)cc4o3)cc2)cc1`, the melting point was 159 to 160 °C. `Nc1nc(C(F)(F)F)cc(=O)n1N` showed a melting point of 215 to 218 °C.
